The values below come from patent US20260284044A1, “PHARMACEUTICAL COMPOSITIONS OF VARENICLINE AND PROCESS THEREOF” (TENSHI KAIZEN L PRIVATE LIMITED, priority 2023, published 2026).

Bounds are passed on as bounds.

The conditions of data set [1]: FDA, cited from earlier work.
Data set [2] in a line: N-nitroso varenicline content of API and tablets, initial and on stability storage. The class given is physicochemical.

Regarding `O=NN1CC2CC(C1)c1cc3nccnc3cc12` [N-nitroso-varenicline], the “Intake limit considered reasonably safe for humans” value in data set [1] (based on lifetime exposure) is on record as 37 nanograms per day. Besides, the “Interim acceptable intake limit” value in data set [1] (interim limit for distribution in the US) is on record as at most 185 ng per day.
In the case of “(2R,3R)-2,3-dihydroxybutanedioic acid;5,8,14-triazatetracyclo [10.3.1.02,11.04,9]hexadeca-2,4,6,8,10-pentaene [Varenicline API]”, in data set [2] (Batch API (EL-01-A179-2001003), limit NMT 18.5 ppm), the “Results (nitroso varenicline)” value is “Less than 2 ppm”. Further, the “Initial (ppm) (N-nitroso varenicline)” value in data set [2] (Orally disintegrating tablets 1 mg and API, initial data) is listed as 1.73 ppm.
